Experimental data from patent US20030229053A1, “Compounds and methods for the treatment or prevention of flavivirus infections” (Shire BioChem Inc., priority 2001, published 2003).

Target: HCV NS5B RNA-dependent RNA polymerase (Hepatitis C virus genotype 1b, UniProt P26663)
Test: In vitro RNA-dependent RNA polymerase assay (Assay 1), polyA/oligo dT, TCA precipitation
Assay type: biochemical
Settings: not given
Experimental: Purification of Recombinant NS5B Using Fast Protein Liquid Chromatography (FPLC):
Soluble NS5B protein in the S3 fraction was diluted to lower the NaCl concentration to 300 mM, then it incubated batchwise with DEAE sepharose beads (Amersham-Pharmacia) for 2 hrs at 4° C., as described by Behrens et al. (1996). Unbound material was cleared by centrifugation for 15 min at 4° C., at 25,000 rpm using a SW41 rotor (Beckman). The supernatant was further diluted to lower the NaCl concentration to 200 mM and subsequently loaded, with a flow rate of 1 ml/min, on a 5 ml HiTrap® heparin column (Amersham-Pharmacia) connected to an FPLC® system (Amersham-Pharmacia). Bound proteins were eluted in 1 ml fractions, using a continuous NaCl gradient of 0.2 to 1 M, over a 25 ml volume. NS5B-containing fractions were identified by sodium dodecyl sulfate polyacrylamide gel electrophoresis (SDS-PAGE), followed by western blotting using the anti-NS5B antiserum at a dilution of 1:2000. Positive fractions were pooled and the elution buffer was exchanged against a 50 mM NaPO4 pH 7.0, 20% glycerol, 0.5% triton X-100 and 10 mM DTT, using a PD-10 column (Amersham-Pharmacia). The sample was then loaded onto a 1 ml HiTrap® SP column (Amersham-Pharmacia), with a flow rate of 0.1 ml/min. Bound proteins were eluted using a continuous 0 to 1 M NaCl gradient over a 15 ml volume. Eluted fractions were analyzed by SDS-PAGE and western blotting. Alternatively, proteins were visualized, following SDS-PAGE, by silver staining using the Silver Stain Plus kit (BioRad) as described by the manufacturer. […]
In vitro RNA-dependent RNA Polymerase Assays Used to Evaluate Biaryl Analogues (Assay 1):
RdRp assays were conducted using the homopolymeric template/primer polyA/oligo dT. All RdRp reactions were performed in a total volume of 50 μl, and in a basic buffer consisting of 20 mM Tris-HCl pH 7.5, 1 mM DTT, 50 mM NaCl, 5 mM MgCl2, 0.5 μCi […] (3000 Ci/mmol), 15 μM cold UTP and 20 U RNasin (Promega). Standard HCV RdRp reactions contained 200 ng of purified NS5B protein. PolyA RNAs (Amersham-Pharmacia) was resuspended at 400 ng/μl. The primer oligodT15 (Canadian life technologies) was diluted to a concentration of […] (7.6 ng/μl). Templates and primers were mixed volume to volume, denatured at 95° C. for 5 min and annealed at 37° C. for 10 min. Following a two hour incubation at 22° C., reactions were stopped by the addition of 100 μg of sonicated salmon sperm DNA (Life Technologies) and 1 ml of 10% trichloroacetic acid-0.5% tetrasodium pyrophosphate (TCA-PPi). Nucleic acids were precipitated at 4° C. for 30 min after which samples were filtered on GF/C glass microfiber filters (Millipore). Membranes were subsequently washed with 25 ml of a 1% TCA-0.1% PPi solution, then air dried. Incorporated radioactivity was quantified using a liquid scintillation counter (1450-Microbeta, Wallac). Results are shown in Table 1, in the column indicated as Assay 1.

Chain of HCV NS5B RNA-dependent RNA polymerase (P26663 2420-3010 limits assumed): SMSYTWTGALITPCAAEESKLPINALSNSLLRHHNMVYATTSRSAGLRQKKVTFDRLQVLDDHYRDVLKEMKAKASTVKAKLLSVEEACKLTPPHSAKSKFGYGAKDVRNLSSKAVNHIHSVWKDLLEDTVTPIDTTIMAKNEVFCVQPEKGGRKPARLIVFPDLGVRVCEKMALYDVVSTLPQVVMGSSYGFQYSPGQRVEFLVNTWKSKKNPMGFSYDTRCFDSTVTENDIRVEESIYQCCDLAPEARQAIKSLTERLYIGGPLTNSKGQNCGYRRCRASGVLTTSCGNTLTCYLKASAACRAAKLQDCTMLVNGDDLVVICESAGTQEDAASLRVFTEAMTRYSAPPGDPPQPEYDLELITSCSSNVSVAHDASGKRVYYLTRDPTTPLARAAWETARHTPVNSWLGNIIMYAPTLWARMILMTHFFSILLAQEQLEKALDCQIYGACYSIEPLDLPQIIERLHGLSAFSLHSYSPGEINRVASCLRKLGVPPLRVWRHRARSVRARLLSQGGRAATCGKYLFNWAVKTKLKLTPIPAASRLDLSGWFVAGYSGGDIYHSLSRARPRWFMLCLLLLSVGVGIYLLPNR

Structure (SMILES) | IC50 [µM]
O=C(O)[C@H](Cc1ccccc1)N(Cc1cccc(Br)c1)C(=O)c1ccc(Cl)cc1Br [compound #36, (2s)-2-[(3-Bromo-benzyl)-(2-bromo-4-chloro-benzoyl)-amino]-3-phenyl-propionic acid] | < 5
Cc1cc(Cl)ccc1C(=O)N(Cc1cccc(-c2cc3ccccc3o2)c1)[C@@H](Cc1ccccc1)C(=O)O [compound #48, (2s)-2-[(3-Benzofuran-2-yl-benzyl)-(4-chloro-2-methyl-benzoyl)-amino]-3-phenyl-propionic acid] | < 5
O=C(O)[C@H](Cc1ccccc1)N(Cc1cccc(F)c1)C(=O)c1ccc(Cl)cc1Cl [compound #51, (2s)-2-[(2,4-Dichloro-benzoyl)-(3-fluoro-benzyl)-amino]-3-phenyl-propionic acid] | < 5

Same assay, conditions: polyA/oligo dT template/primer, 200 ng NS5B, 2 h at 22° C.; read-out: RNA pol Assay 1 IC50 (μm)

IC50 [µM] | Structure (SMILES)
< 5 | O=C(c1cccc(Cl)c1)c1cccc(CN(C(=O)c2ccc(Cl)cc2Cl)[C@@H](Cc2ccccc2)C(=O)O)c1 [compound #41, (2s)-2-[[3-(3-Chloro-benzoyl)-benzyl]-(2,4-dichloro-benzoyl)-amino]-3-phenyl-propionic acid]
< 5 | O=C(c1cccc(CN(C(=O)c2ccc(Cl)cc2Cl)[C@@H](Cc2ccccc2)C(=O)O)c1)c1ccc(F)cc1F [compound #42, (2s)-2-{(2,4-Dichloro-benzoyl)-[3-(2,4-difluoro-benzoyl)-benzyl]-amino}-3-phenyl-propionic acid]
< 5 | Cc1onc(-c2ccccc2Cl)c1C(=O)c1cccc(CN(C(=O)c2ccc(Cl)cc2Cl)[C@@H](Cc2ccccc2)C(=O)O)c1 [compound #43, (2s)-2-[{3-[3-(2-Chloro-phenyl)-5-methyl-isoxazole-4-carbonyl]-benzyl}-(2,4-dichloro-benzoyl)-amino]-3-phenyl-propionic acid]
< 5 | O=C(c1cccc(CN(C(=O)c2ccc(Cl)cc2Cl)[C@@H](Cc2ccccc2)C(=O)O)c1)c1ccc(Cl)cc1Cl [compound #44, (2s)-2-{(2,4-Dichloro-benzoyl)-[3-(2,4-dichloro-benzoyl)-benzyl]-amino}-3-phenyl-propionic acid]
< 5 | O=C(O)[C@H](Cc1ccccc1)N(Cc1cccc(-c2nc3ccccc3o2)c1)C(=O)c1ccc(Cl)cc1Cl [compound #45, (2s)-2-[(3-Benzooxazol-2-yl-benzyl)-(2,4-dichloro-benzoyl)-amino]-3-phenyl-propionic acid]
< 5 | CCc1cc(Cl)ccc1C(=O)N(Cc1cccc(Br)c1)[C@@H](Cc1ccccc1)C(=O)O [compound #46, (2s)-2-[(3-Bromo-benzyl)-(4-chloro-2-ethyl-benzoyl)-amino]-3-phenyl-propionic acid]
< 5 | O=C(O)[C@H](CC1CCCCC1)N(Cc1ccc(-c2cc3ccccc3o2)cc1)C(=O)c1ccc(Cl)cc1Cl [compound #47, (2s)-2-[(4-Benzofuran-2-yl-benzyl)-(2,4-dichloro-benzoyl)-amino]-3-cyclohexyl-propionic acid]
< 5 | O=C(O)[C@H](Cc1ccccc1)N(Cc1cccc(-c2cc3ccccc3o2)c1)C(=O)c1ccc(Cl)cc1Br [compound #49, (2s)-2-[(3-Benzofuran-2-yl-benzyl)-(2-bromo-4-chloro-benzoyl)-amino]-3-phenyl-propionic acid]
< 5 | C=Cc1cc(Cl)ccc1C(=O)N(Cc1cccc(Br)c1)[C@@H](Cc1ccccc1)C(=O)O [compound #50, (2s)-2-[(3-Bromo-benzyl)-(4-chloro-2-vinyl-benzoyl)-amino]-3-phenyl-propionic acid]
< 5 | O=C(O)[C@H](Cc1ccccc1)N(Cc1cccc(Cl)c1)C(=O)c1ccc(Cl)cc1Cl [compound #52, (2s)-2-[(3-Chloro-benzyl)-(2,4-dichloro-benzoyl)-amino]-3-phenyl-propionic acid]
5 to 20 | O=C(O)[C@H](Cc1ccccc1)N(Cc1ccc(-c2cccc(Cl)c2)o1)C(=O)c1ccccc1Cl [compound #55, (2s)-2-{(2-Chloro-benzoyl)-[5-(3-chloro-phenyl)-furan-2-ylmethyl]-amino}-3-phenyl-propionic acid]
< 5 | O=C(O)[C@H](Cc1ccccc1)N(Cc1ccc(-c2cccc(C(F)(F)F)c2)o1)C(=O)c1ccc(Cl)cc1Cl [compound #56, (2s)-2-{(2,4-Dichloro-benzoyl)-[5-(3-trifluoromethyl-phenyl)-furan-2-ylmethyl]-amino}-3-phenyl-propionic acid]
5 to 20 | O=C(O)[C@H](Cc1ccccc1)N(Cc1ccc(Br)o1)C(=O)c1ccc(Cl)cc1Cl [compound #57, (2s)-2-[(5-Bromo-furan-2-ylmethyl)-(2,4-dichloro-benzoyl)-amino]-3-phenyl-propionic acid]
< 5 | O=C(O)[C@H](Cc1ccccc1)N(Cc1ccc(-c2cc3ccccc3o2)o1)C(=O)c1ccc(Cl)cc1Cl [compound #58, (2s)-2-[(5-Benzofuran-2-yl-furan-2-ylmethyl)-(2,4-dichloro-benzoyl)-amino]-3-phenyl-propionic acid]
< 5 | O=C(O)[C@H](Cc1ccccc1)N(Cc1ccc(-c2ccc(Br)cc2)o1)C(=O)c1ccc(Cl)cc1Cl [compound #59, (2s)-2-[[5-(4-Bromo-phenyl)-furan-2-ylmethyl]-(2,4-dichloro-benzoyl)-amino]-3-phenyl-propionic acid]
< 5 | O=C(O)[C@H](Cc1ccccc1)N(Cc1ccc(-c2ccccc2Cl)o1)C(=O)c1ccc(Cl)cc1Cl [compound #60, (2s)-2-[[5-(2-Chloro-phenyl)-furan-2-ylmethyl]-(2,4-dichloro-benzoyl)-amino]-3-phenyl-propionic acid]

Further lines, the compound ahead of its results:

Structure (SMILES) | IC50 [µM]
COc1cc(C)c(S(=O)(=O)N(Cc2ccc(-c3cc4ccccc4o3)cc2)[C@@H](Cc2ccc(O)cc2)C(=O)O)c(C)c1C [compound #32, (2s)-2-[(4-Benzofuran-2-yl-benzyl)-(4-methoxy-2,3,6-trimethyl-benzenesulfonyl)-amino]-3-(4-hydroxy-phenyl)-propionic acid] | < 5
O=C(O)[C@H](Cc1ccc(O)cc1)N(Cc1ccc(-c2cc3ccccc3o2)cc1)C(=O)c1ccc(Cl)cc1Cl [compound #33, (2s)-2-[(4-Benzofuran-2-yl-benzyl)-(2,4-dichloro-benzoyl)-amino]-3-(4-hydroxy-phenyl)-propionic acid] | < 5
Cc1cc(Cl)ccc1C(=O)N(Cc1cccc(Br)c1)[C@@H](Cc1ccccc1)C(=O)O [compound #34, (2s)-2-[(3-Bromo-benzyl)-(4-chloro-2-methyl-benzoyl)-amino]-3-phenyl-propionic acid] | < 5
O=C(O)[C@H](Cc1ccccc1)N(Cc1cccc(Br)c1)C(=O)c1ccc(Cl)cc1I [compound #35, (2s)-2-[(3-Bromo-benzyl)-(4-chloro-2-iodo-benzoyl)-amino]-3-phenyl-propionic acid] | < 5
O=C(O)[C@H](Cc1ccccc1)N(Cc1cccc(-c2cc3ccccc3o2)c1)C(=O)Cc1ccc(Cl)cc1Cl [compound #37, (2s)-2-{(3-Benzofuran-2-yl-benzyl)-[(2,4-dichloro-phenyl)-acetyl]-amino}-3-phenyl-propionic acid] | < 5
O=C(O)[C@H](Cc1ccccc1)N(Cc1ccc(-c2cc3ccccc3o2)cc1)c1ccc(Cl)cc1Cl [compound #38, (2s)-2-[(4-Benzofuran-2-yl-benzyl)-(2,4-dichloro-phenyl)-amino]-3-phenyl-propionic acid] | < 5
O=C(O)[C@H](Cc1ccccc1)N(Cc1ccc2ccccc2c1)C(=O)c1ccc(Cl)cc1Cl [compound #39, (2s)-2-[(2,4-Dichloro-benzoyl)-naphthalen-2-ylmethyl-amino]-3-phenyl-propionic acid] | < 5
O=C1c2ccccc2C(=O)c2cc(CN(C(=O)c3ccc(Cl)cc3Cl)[C@@H](Cc3ccccc3)C(=O)O)ccc21 [compound #40, (2s)-2-[(2,4-Dichloro-benzoyl)-(9,10-dioxo-9,10-dihydro-anthracen-2-ylmethyl)-amino]-3-phenyl-propionic acid] | < 5
